# PMC8222254, “Self-assembly of an anion receptor with metal-dependent kinase inhibition and potent in vitro anti-cancer properties” (Nature Communications, 2021)
# Several values for one entry are separate records, joined by “and”; a condition that tells them apart may be missing. Equal entries are not always repeated. Where two headings read alike, the source gives them in different places.
# How the values were obtained:
# Assay in all cases: Chemosensitivity, 96 h continuous exposure, MTT assay
# Format in all cases: cell-based, human
# ARPE-19 non-cancer cells = conditions: for Relative potency (+ anion to no anion), Ratio + anion:no anion: ratio of IC50, ARPE-19
# Method in brief: (§1)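 Growth inhibition is measured by MTT after cells are dosed for 96 h without washout. The 50% growth-reduction concentration is then interpolated from the curves.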
# H460 = conditions: for IC50 / Selectivity indices relative to ARPE-19, Ratio + anion:no anion / Selectivity indices relative to MCF10A, Ratio + anion:no anion: H460; for Selectivity index (ARPE19): IC50 ARPE-19 / IC50 H460; for Selectivity index (MCF10A): IC50 MCF10A / IC50 H460; for Relative potency (+ anion to no anion), Ratio + anion:no anion: ratio of IC50, H460; for Selectivity indices relative to ARPE-19, Ratio + anion:no anion: ratio of SI (ARPE-19); for Selectivity indices relative to MCF10A, Ratio + anion:no anion: ratio of SI (MCF 10A)
# Method in brief: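 Cells were seeded overnight at 37 °C (2 × 10^3/well; GBM1 at 3 × 10^3/well on poly-L-ornithine/laminin in Neurobasal with hFGF/rhEGF), then exposed to compound concentration ranges for 96 h. Viability was read by MTT (4 h, formazan in DMSO, A540) and IC50 taken from dose–response curves.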
# MCF10A non-cancer cells = conditions: for Relative potency (+ anion to no anion), Ratio + anion:no anion: ratio of IC50, MCF10A
# Method in brief: as §1
# MiaPaCa2 = conditions: for Selectivity index (ARPE19): IC50 ARPE-19 / IC50 MiaPaCa2; for Selectivity index (MCF10A): IC50 MCF10A / IC50 MiaPaCa2; for IC50 / Selectivity indices relative to ARPE-19, Ratio + anion:no anion / Selectivity indices relative to MCF10A, Ratio + anion:no anion: MiaPaCa2; for Relative potency (+ anion to no anion), Ratio + anion:no anion: ratio of IC50, MiaPaCa2; for Selectivity indices relative to ARPE-19, Ratio + anion:no anion: ratio of SI (ARPE-19); for Selectivity indices relative to MCF10A, Ratio + anion:no anion: ratio of SI (MCF 10A)
# Method in brief: as §1
# [1] = ARPE-19, mean of replicates, read-out: Mean IC50
# [2] = ARPE-19, single replicate, read-out: IC50 values for each replicate
# [3] = ARPE-19 non-cancer, read-out: Mean IC50 values
# [4] = mean of replicates, read-out: Mean IC50
# [5] = single replicate, read-out: IC50 values for each replicate
# [6] = MCF10A non-cancer, read-out: Mean IC50 values
# [7] = MCF10A, mean of replicates, read-out: Mean IC50
# [8] = MCF10A, single replicate, read-out: IC50 values for each replicate
Compound,IC50 (ARPE-19 non-cancer cells; [1]),IC50 (ARPE-19 non-cancer cells; [2]),IC50 (ARPE-19 non-cancer cells; [3]),"Relative potency (+ anion to no anion), Ratio + anion:no anion (ARPE-19 non-cancer cells)",IC50 (H460; [4]),IC50 (H460; read-out: Mean IC50 values),IC50 (H460; [5]),Selectivity index (ARPE19) (H460),Selectivity index (MCF10A) (H460),"Relative potency (+ anion to no anion), Ratio + anion:no anion (H460)","Selectivity indices relative to ARPE-19, Ratio + anion:no anion (H460)",IC50 (MCF10A non-cancer cells; [6]),IC50 (MCF10A non-cancer cells; [7]),IC50 (MCF10A non-cancer cells; [8]),"Relative potency (+ anion to no anion), Ratio + anion:no anion (MCF10A non-cancer cells)",Selectivity index (ARPE19) (MiaPaCa2),Selectivity index (MCF10A) (MiaPaCa2),IC50 (MiaPaCa2; [4]),IC50 (MiaPaCa2; read-out: Mean IC50 values),IC50 (MiaPaCa2; [5]),further results
O=P([O-])([O-])Oc1ccccc1.[Cu+2].[Cu+2].[Cu+2].c1ccc(-c2csc(NCCN(CCNc3nc(-c4ccccn4)cs3)CCNc3nc(-c4ccccn4)cs3)n2)nc1.c1ccc(-c2csc(NCCN(CCNc3nc(-c4ccccn4)cs3)CCNc3nc(-c4ccccn4)cs3)n2)nc1 [[L2Cu3(O3POPh)]4+],115 µM,179 µM and 157 µM and 60.7 µM and 64.1 µM,115 µM,2.19,0.198 µM,0.198 µM,0.122 µM and 0.234 µM and 0.163 µM and 0.228 µM and 0.245 µM,582.02,259.98,0.72,3.052,51.5 µM,51.5 µM,60.2 µM and 49 µM and 54.9 µM and 41.9 µM,1.07,2.44,1.09,47.2 µM,47.2 µM,50.1 µM and 44.3 µM and 47.1 µM,"Selectivity indices relative to MCF10A, Ratio + anion:no anion (H460): 1.487; Relative potency (+ anion to no anion), Ratio + anion:no anion (MiaPaCa2): 4.00; Selectivity indices relative to ARPE-19, Ratio + anion:no anion (MiaPaCa2): 0.548; Selectivity indices relative to MCF10A, Ratio + anion:no anion (MiaPaCa2): 0.267"
O=P([O-])([O-])[O-].[Cu+2].[Cu+2].[Cu+2].c1ccc(-c2csc(NCCN(CCNc3nc(-c4ccccn4)cs3)CCNc3nc(-c4ccccn4)cs3)n2)nc1.c1ccc(-c2csc(NCCN(CCNc3nc(-c4ccccn4)cs3)CCNc3nc(-c4ccccn4)cs3)n2)nc1 [[L2Cu3(PO4)]3+],164 µM,144 µM and 157 µM and 173 µM and 182 µM,164 µM,3.11,1.41 µM,1.41 µM,592 nM and 533 nM and 1.4 µM and 2.22 µM and 504 nM and 1.98 µM (2×) and 2.1 µM,115.82,34.92,5.12,0.607,49.4 µM,49.4 µM,46.7 µM and 51 µM and 59.3 µM and 40.6 µM,1.02,1.36,0.41,121 µM,121 µM,108 µM and 145 µM and 109 µM,"Selectivity indices relative to MCF10A, Ratio + anion:no anion (H460): 0.200; Relative potency (+ anion to no anion), Ratio + anion:no anion (MiaPaCa2): 10.22; Selectivity indices relative to ARPE-19, Ratio + anion:no anion (MiaPaCa2): 0.305; Selectivity indices relative to MCF10A, Ratio + anion:no anion (MiaPaCa2): 0.100"
O=S(=O)([O-])[O-].[Cu+2].[Cu+2].[Cu+2].c1ccc(-c2csc(NCCN(CCNc3nc(-c4ccccn4)cs3)CCNc3nc(-c4ccccn4)cs3)n2)nc1.c1ccc(-c2csc(NCCN(CCNc3nc(-c4ccccn4)cs3)CCNc3nc(-c4ccccn4)cs3)n2)nc1 [[L2Cu3(SO4)]4+],120 µM,126 µM and 121 µM and 113 µM,120 µM,2.29,0.252 µM,0.252 µM,0.438 µM and 0.207 µM and 0.188 µM and 0.219 µM and 0.227 µM and 0.234 µM,477.42,197.35,0.91,2.504,49.7 µM,49.7 µM,53.2 µM and 42.9 µM and 45.1 µM and 57.7 µM,1.03,2.28,0.94,52.7 µM,52.7 µM,63.7 µM and 63.6 µM and 47.2 µM and 43.5 µM and 49.7 µM and 48.3 µM,"Selectivity indices relative to MCF10A, Ratio + anion:no anion (H460): 1.129; Relative potency (+ anion to no anion), Ratio + anion:no anion (MiaPaCa2): 4.46; Selectivity indices relative to ARPE-19, Ratio + anion:no anion (MiaPaCa2): 0.512; Selectivity indices relative to MCF10A, Ratio + anion:no anion (MiaPaCa2): 0.231"
O=P(O)(O)Oc1ccccc1.[Zn+2].[Zn+2].[Zn+2].c1ccc(-c2csc(NCCN(CCNc3nc(-c4ccccn4)cs3)CCNc3nc(-c4ccccn4)cs3)n2)nc1.c1ccc(-c2csc(NCCN(CCNc3nc(-c4ccccn4)cs3)CCNc3nc(-c4ccccn4)cs3)n2)nc1 [[L2Zn3(O3POPh)]4+],230 µM,273 µM and 210 µM and 208 µM,230 µM,1.46,0.276 µM,0.276 µM,0.263 µM and 0.517 µM and 0.187 µM and 0.138 µM,834.24,189.68,0.77,1.910,52.4 µM,52.4 µM,37.9 µM and 56.1 µM and 63.1 µM,0.32,4.94,1.12,46.6 µM,46.6 µM,45.4 µM and 47.8 µM and 46.8 µM,"Relative potency (+ anion to no anion), Ratio + anion:no anion (MiaPaCa2): 0.79; Selectivity indices relative to ARPE-19, Ratio + anion:no anion (MiaPaCa2): 1.858; Selectivity indices relative to MCF10A, Ratio + anion:no anion (MiaPaCa2): 0.410"
CC(=O)[O-].CC(=O)[O-].CC(=O)[O-].O=P([O-])([O-])[O-].[Zn+2].[Zn+2].[Zn+2].c1ccc(-c2csc(NCCN(CCNc3nc(-c4ccccn4)cs3)CCNc3nc(-c4ccccn4)cs3)n2)nc1.c1ccc(-c2csc(NCCN(CCNc3nc(-c4ccccn4)cs3)CCNc3nc(-c4ccccn4)cs3)n2)nc1 [[L2Zn3(PO4)]3+],131 µM,121 µM and 118 µM and 154 µM,131 µM,0.83,0.249 µM,0.249 µM,0.241 µM and 0.263 µM and 0.265 µM and 0.226 µM,525.98,57.92,0.69,1.204,14.4 µM,14.4 µM,11.9 µM and 15 µM and 16.3 µM,0.09,2.94,0.32,44.5 µM,44.5 µM,52.4 µM and 49.8 µM and 47.6 µM and 22 µM and 50.8 µM,"Selectivity indices relative to MCF10A, Ratio + anion:no anion (H460): 0.129; Relative potency (+ anion to no anion), Ratio + anion:no anion (MiaPaCa2): 0.75; Selectivity indices relative to ARPE-19, Ratio + anion:no anion (MiaPaCa2): 1.106; Selectivity indices relative to MCF10A, Ratio + anion:no anion (MiaPaCa2): 0.118"
O=S(=O)(O)O.[Zn+2].[Zn+2].[Zn+2].c1ccc(-c2csc(NCCN(CCNc3nc(-c4ccccn4)cs3)CCNc3nc(-c4ccccn4)cs3)n2)nc1.c1ccc(-c2csc(NCCN(CCNc3nc(-c4ccccn4)cs3)CCNc3nc(-c4ccccn4)cs3)n2)nc1 [[L2Zn3(SO4)]4+],169 µM,182 µM and 150 µM and 176 µM,169 µM,1.08,0.233 µM,0.233 µM,0.189 µM and 0.262 µM and 0.25 µM,726.48,65.36,0.65,1.663,15.2 µM,15.2 µM,18.5 µM and 11.3 µM (2×) and 19.7 µM,0.09,3.29,0.30,51.5 µM,51.5 µM,52.6 µM and 36.7 µM and 60.8 µM and 55.8 µM,"Selectivity indices relative to MCF10A, Ratio + anion:no anion (H460): 1.128; Relative potency (+ anion to no anion), Ratio + anion:no anion (MiaPaCa2): 0.87; Selectivity indices relative to ARPE-19, Ratio + anion:no anion (MiaPaCa2): 1.236; Selectivity indices relative to MCF10A, Ratio + anion:no anion (MiaPaCa2): 0.108"
